This experiment deals with Serine/threonine-protein kinase PLK1 (Homo sapiens, UniProt P53350).

The structures appear in SMILES notation.

Sequence of Serine/threonine-protein kinase PLK1 (P53350 whole entry): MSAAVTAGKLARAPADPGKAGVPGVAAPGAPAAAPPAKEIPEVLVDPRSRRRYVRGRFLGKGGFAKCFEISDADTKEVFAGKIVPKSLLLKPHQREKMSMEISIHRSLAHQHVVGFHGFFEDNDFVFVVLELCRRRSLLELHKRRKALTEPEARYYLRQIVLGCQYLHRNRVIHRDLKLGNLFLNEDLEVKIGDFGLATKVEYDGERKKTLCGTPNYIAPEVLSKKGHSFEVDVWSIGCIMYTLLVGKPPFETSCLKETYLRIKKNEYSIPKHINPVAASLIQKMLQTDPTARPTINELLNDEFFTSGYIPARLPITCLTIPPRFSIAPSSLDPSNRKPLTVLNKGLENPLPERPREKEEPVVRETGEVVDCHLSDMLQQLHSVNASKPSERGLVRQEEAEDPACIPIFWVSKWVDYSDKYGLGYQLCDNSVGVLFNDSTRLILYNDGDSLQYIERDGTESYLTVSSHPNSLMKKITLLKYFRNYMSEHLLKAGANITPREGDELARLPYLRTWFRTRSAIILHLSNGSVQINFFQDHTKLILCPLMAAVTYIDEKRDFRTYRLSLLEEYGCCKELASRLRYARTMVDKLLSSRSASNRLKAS

The term IC50 denotes the concentration at which inhibition is half-maximal. `Cc1cc(NC(=O)Nc2ncc(CCNc3cc(Nc4nnc[nH]4)ncn3)s2)c(C(F)(F)F)o1`: the IC50 came to 720 nM.

The values are drawn from ChEMBL document CHEMBL1156260, “Through the "gatekeeper door": exploiting the active kinase conformation” (J Med Chem, 2010).
